Where two headings read alike, the source gives them in different places.
Assays:
[1] = biological target: T1, RORγ ligand binding domain (LBD) (Homo sapiens, UniProt P51449); experiment: TR-FRET Activity Assay (ligand sensing, RORγ-LBD / coactivator peptide interaction, LANCE); format: biochemical
T1 construct: made in house; host or cells: E. coli BL-21 (BL3), vector pDEST15
T1 sequence (P51449 269-508 limits assumed): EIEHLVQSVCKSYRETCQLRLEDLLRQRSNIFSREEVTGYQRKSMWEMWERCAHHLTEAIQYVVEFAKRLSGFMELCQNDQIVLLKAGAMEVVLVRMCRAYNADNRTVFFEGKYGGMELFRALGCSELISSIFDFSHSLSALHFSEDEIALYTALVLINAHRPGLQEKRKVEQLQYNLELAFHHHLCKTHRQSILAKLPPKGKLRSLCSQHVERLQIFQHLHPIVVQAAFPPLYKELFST

[2] = biological target: T2, RORγ (UniProt P51449); experiment: RORγ Gal4 Reporter Gene Assay in 293T cells (firefly and renilla luciferase); format: cell-based, human
T2 sequence (P51449 1-518): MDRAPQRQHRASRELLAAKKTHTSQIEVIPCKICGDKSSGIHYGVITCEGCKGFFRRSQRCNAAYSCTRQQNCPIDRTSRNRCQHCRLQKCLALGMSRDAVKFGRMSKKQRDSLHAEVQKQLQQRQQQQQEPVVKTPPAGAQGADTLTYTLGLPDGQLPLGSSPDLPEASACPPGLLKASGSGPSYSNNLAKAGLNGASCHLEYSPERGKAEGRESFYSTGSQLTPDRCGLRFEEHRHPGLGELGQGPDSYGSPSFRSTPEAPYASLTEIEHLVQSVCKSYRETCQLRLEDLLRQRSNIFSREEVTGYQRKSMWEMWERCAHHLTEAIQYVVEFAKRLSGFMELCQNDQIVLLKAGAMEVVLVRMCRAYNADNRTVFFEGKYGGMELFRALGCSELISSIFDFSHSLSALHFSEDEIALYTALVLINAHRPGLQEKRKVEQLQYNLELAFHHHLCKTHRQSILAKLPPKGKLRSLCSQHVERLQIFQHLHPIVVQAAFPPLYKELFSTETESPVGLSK

[3] = first value of the cell FRET/FF/REN, TR-FRET activity assay, read-out: pIC50 (FRET) (converted)
[4] = second value of the cell, Gal4 reporter gene assay in 293T cells, firefly luciferase
[5] = third value of the cell, Gal4 reporter gene assay in 293T cells, renilla normalised luciferase

| SMILES | IC50 [1, 3] | pIC50 (FF) [2, 4] | pIC50 (REN) [2, 5] | IC50 [1] | pIC50 (FF) [2] | pIC50 (REN) [2] |
| --- | --- | --- | --- | --- | --- | --- |
| COCC(=O)NC(C)(C)CNC(=O)c1cc(-c2cc(C(C)(C)C)cc(C3(C)CC3)c2)n(CC2CCCCC2)c1C [17/122] | – | – | – | 398 nM | 6.4/7.6/7.5 | 6.4/7.6/7.5 |
| Cc1c(C(=O)NCC(C)(C)NC(=O)C(C)O)cc(-c2cc(C(C)(C)C)c3c(c2)C2(CCO3)CC2)n1CC1CCCCC1 (stereo not drawn) [17/123] | – | – | – | 3160 nM | 5.5/7.0/7.0 | 5.5/7.0/7.0 |
| COCC(=O)NC(C)(C)CNC(=O)c1cc(-c2cc(C(C)(C)C)c3c(c2)C2(CCO3)CC2)n(CC2CCCCC2)c1C [17/124] | – | – | – | 794 nM | 6.1/7.4/7.5 | 6.1/7.4/7.5 |
| CCN(C(C)(C)C)S(=O)(=O)c1ccc(-c2cc(C(=O)NC3CCOCC3)c(C)n2CC2CCCCC2)cc1C(F)F [17/125] | – | – | – | 79.4 nM | 7.1/6.4/6/ | 7.1/6.4/6/ |
| Cc1c(C(=O)NC2CCOCC2)cc(-c2ccc(S(=O)(=O)NC(C)(C)C)c(C(F)F)c2)n1CC1CCC1 [17/126] | 316 nM | 6.7 | 6.9 | – | – | – |
| Cc1c(C(=O)NCC(C)(C)C(=O)O)cc(-c2ccc(S(=O)(=O)NC(C)(C)C)c(C(F)F)c2)n1CC1CCCCC1 [17/127] | 316 nM | 7.1 | 7.2 | – | – | – |
| Cc1c(C(=O)NCC(C)(C)C(N)=O)cc(-c2ccc(S(=O)(=O)NC(C)(C)C)c(C(F)F)c2)n1CC1CCCCC1 [17/128] | 200 nM | 8.0 | 8.0 | – | – | – |
| Cc1c(C(=O)NCC2(O)CCOCC2)cc(-c2ccc(S(=O)(=O)NC(C)(C)C)c(C(F)F)c2)n1CC1CCCCC1 [17/129] | – | – | – | 200 nM | 6.7/8.0/8.0 | 6.7/8.0/8.0 |
| Cc1c(C(=O)NCCC(C)(C)C(=O)O)cc(-c2ccc(S(=O)(=O)NC(C)(C)C)c(C(F)F)c2)n1CC1CCCCC1 [17/130] | 251 nM | 7.5 | 7.6 | – | – | – |
| Cc1c(C(=O)NC2CCOCC2)cc(-c2ccc(CC(=O)NC(C)(C)C)c(C(F)(F)F)c2)n1CC1CCCCC1 [17/131] | 501 nM | 6.8 | 6.9 | – | – | – |
| Cc1c(C(=O)NC2CCOCC2)cc(-c2ccc(C(C)(C)C(=O)NC(C)(C)C)c(C(F)(F)F)c2)n1CC1CCCCC1 [17/132] | 3980 nM | 6.3 | 6.2 | – | – | – |
| Cc1c(C(=O)NC2CCOCC2)cc(-c2ccc(S(=O)(=O)NC(C)(C)C)c(C(F)(F)F)c2)n1CC1CC(F)(F)C1 [17/133] | 1260 nM | 6.3 | 6.3 | – | – | – |
| Cc1c(C(=O)NCC(C)(C)CC(=O)O)cc(-c2ccc(S(=O)(=O)NC(C)(C)C)c(C(F)(F)F)c2)n1CC1CCCCC1 [17/134] | 398 nM | 7.4 | 7.7 | – | – | – |
| Cc1c(C(=O)NCCC(C)(C)C(N)=O)cc(-c2ccc(S(=O)(=O)NC(C)(C)C)c(C(F)(F)F)c2)n1CC1CCCCC1 [17/135] | 631 nM | 6.7 | 6.7 | – | – | – |
| CNC(=O)C(C)(C)CCNC(=O)c1cc(-c2ccc(S(=O)(=O)NC(C)(C)C)c(C(F)(F)F)c2)n(CC2CCCCC2)c1C [17/136] | 794 nM | 6.6 | 6.7 | – | – | – |
| Cc1c(C(=O)N2CCOC(C(=O)O)C2)cc(-c2ccc(S(=O)(=O)NC(C)(C)C)c(C(F)(F)F)c2)n1CC1CCCCC1 (stereo not drawn) [17/137] | 501 nM | < 4.7 | < 4.7 | – | – | – |
| Cc1c(C(=O)N[C@@H]2CCCOC2)cc(-c2ccc(S(=O)(=O)NC(C)(C)C)c(C(F)(F)F)c2)n1CC1CCCCC1 [17/138] | 200 nM | 7.1 | 7.3 | – | – | – |
| Cc1c(C(=O)N[C@H]2CCCOC2)cc(-c2ccc(S(=O)(=O)NC(C)(C)C)c(C(F)(F)F)c2)n1CC1CCCCC1 [17/139] | 158 nM | 7.2 | 7.4 | – | – | – |
| Cc1c(C(=O)NC2CCOCC2)cc(-c2ccc(S(=O)(=O)NCC(F)(F)F)c(C(F)(F)F)c2)n1CC1CCCCC1 [17/140] | 200 nM | 8.0 | 8.1 | – | – | – |
| Cc1c(C(=O)NC2CCOCC2)cc(-c2ccc(S(=O)(=O)N[C@@H](C)C(F)(F)F)c(C(F)(F)F)c2)n1CC1CCCCC1 [17/141] | 316 nM | 8.3 | 8.5 | – | – | – |
| Cc1c(C(=O)NC2CCOCC2)cc(-c2ccc(S(=O)(=O)N[C@H](C)C(F)(F)F)c(C(F)(F)F)c2)n1CC1CCCCC1 [17/142] | 398 nM | 7.4 | 7.6 | – | – | – |
| Cc1c(C(=O)NC2CCOCC2)cc(-c2ccc(S(=O)(=O)NC(C)(C)CC(F)(F)F)c(C(F)(F)F)c2)n1CC1CCCCC1 [17/143] | 126 nM | 8.2 | 8.2 | – | – | – |
| Cc1c(C(=O)NC2CCOCC2)cc(-c2ccc(S(=O)(=O)NC3(C#N)CC3)c(C(F)(F)F)c2)n1CC1CCCCC1 [17/144] | 501 nM | 7.7 | 7.7 | – | – | – |
| Cc1c(C(=O)NC2CCOCC2)cc(-c2ccc(S(=O)(=O)NC3(C)COC3)c(C(F)(F)F)c2)n1CC1CCCCC1 [17/145] | 631 nM | 7.6 | 7.7 | – | – | – |
| Cc1c(C(=O)NC2CCOCC2)cc(-c2ccc(S(=O)(=O)NC(C)(C)C)c(C#N)c2)n1CC1CCCCC1 [17/158] | 794 nM | 6.1 | 6.2 | – | – | – |
| Cc1c(C(=O)NC2CCOCC2)cc(-c2cc(NCC(C)(C)C)nc(C(F)(F)F)c2)n1CC1CCCCC1 [17/159] | 1580 nM | 6.8 | 6.9 | – | – | – |
| Cc1c(C(=O)NC2CCOCC2)cc(-c2ccc(S(=O)(=O)NC(C)(C)C(F)(F)F)c(C(F)(F)F)c2)n1CC1CCCCC1 [17/160] | – | – | – | 200 nM | 6.7/7.8/8.0 | 6.7/7.8/8.0 |

Continued, in another order:

| IC50 [1, 3] | pIC50 (FF) [2, 4] | pIC50 (REN) [2, 5] | SMILES | IC50 [1] | pIC50 (FF) [2] | pIC50 (REN) [2] |
| --- | --- | --- | --- | --- | --- | --- |
| 1000 nM | 7.4 | 7.5 | Cc1c(C(=O)NC2CCOCC2)cc(-c2ccc(S(=O)(=O)NC(C)C(C)(C)O)c(C(F)(F)F)c2)n1CC1CCCCC1 (stereo not drawn) [17/146] | – | – | – |
| 794 nM | 6.7 | 6.7 | Cc1c(C(=O)NC2CCOCC2)cc(-c2ccc(S(=O)(=O)NCC3(C)COC3)c(C(F)(F)F)c2)n1CC1CCCCC1 [17/147] | – | – | – |
| 794 nM | 7.0 | 7.0 | Cc1c(C(=O)NC2CCOCC2)cc(-c2cc(C(F)(F)F)c3c(c2)C(C)(C)C(=O)N3C)n1CC1CCCCC1 [17/148] | – | – | – |
| 1260 nM | 6.6 | 6.6 | Cc1c(C(=O)N[C@H]2C[C@H](C(=O)O)C2)cc(-c2cc(C(F)(F)F)c3c(c2)C(C)(C)C(=O)N3C)n1CC1CCCCC1 [17/149] | – | – | – |
| 501 nM | 8.0 | 8.2 | Cc1c(C(=O)NCCC(C)(C)C(=O)O)cc(-c2ccc(S(=O)(=O)N[C@@H](C)C(F)(F)F)c(C(F)(F)F)c2)n1CC1CCCCC1 [17/150] | – | – | – |
| 316 nM | 8.3 | 8.3 | Cc1c(C(=O)NC2CCOCC2)cc(-c2ccc(S(=O)(=O)N[C@@H](C)C(F)(F)F)c(C(C)(C)C)c2)n1CC1CCCCC1 [17/151] | – | – | – |
| 1000 nM | 8.2 | 8.2 | Cc1c(C(=O)NCCC(C)(C)C(=O)O)cc(-c2ccc(S(=O)(=O)N[C@@H](C)C(F)(F)F)c(C(C)(C)C)c2)n1CC1CCCCC1 [17/152] | – | – | – |
| 316 nM | 6.7 | 6.7 | COC(=O)C(C)(C)CCNC(=O)c1cc(-c2cc(C(C)(C)C)cc(C3(C)CC3)c2)n(CC2CCCCC2)c1C [17/153] | – | – | – |
| 316 nM | 7.2 | 7.3 | COC(=O)[C@H]1C[C@H](NC(=O)c2cc(-c3cc(C(C)(C)C)cc(C4(C)CC4)c3)n(CC3CCCCC3)c2C)C1 [17/154] | – | – | – |
| 631 nM | 7.0 | 7.0 | Cc1c(C(=O)N[C@H]2C[C@H](C(=O)O)C2)cc(-c2cc(C(C)(C)C)cc(C3(O)CC3)c2)n1CC1CCCCC1 [17/155] | – | – | – |
| 398 nM | 7.0 | 7.1 | Cc1c(C(=O)NC2CCOCC2)cc(-c2ccc(S(=O)(=O)NC(C)(C)C)c(Br)c2)n1CC1CCCCC1 [17/157] | – | – | – |
| 631 nM | 7.6 | 7.6 | Cc1c(C(=O)NCCC(C)(C)C(=O)O)cc(-c2ccc(S(=O)(=O)NC(C)(C)C(F)(F)F)c(C(F)(F)F)c2)n1CC1CCCCC1 [17/161] | – | – | – |
| 794 nM | 7.5 | 7.7 | Cc1c(C(=O)NCC(C)(C)c2noc(=O)[nH]2)cc(-c2cc(C(C)(C)C)cc(C3(C)CC3)c2)n1CC1CCCCC1 [17/162] | – | – | – |
